# Assay results from ChEMBL document CHEMBL1201862, “PubChem BioAssay data set” (2004).
# Active and inactive are the calls of the source.
# Legend:
# [1] = biological target: Glycogen synthase kinase-3 beta (Homo sapiens, UniProt P49841); assay: Inhibition of Human GSK-3 beta Activity Measured in Biochemical System Using Microfluidics - 2063-05_Inhibitor_Dose_DryPowder_Activity_Set2. [Related pubchem assays (depositor defined):AID2709]
# [2] = biological target: Glycogen synthase kinase-3 alpha (Homo sapiens, UniProt P49840); assay: Inhibition of Human GSK-3 alpha Activity Measured in Biochemical System Using Microfluidics - 2063-06_Inhibitor_Dose_DryPowder_Activity_Set2. [Related pubchem assays (depositor defined):AID2709]
# [3] = biological target: Cyclin-dependent kinase 5/CDK5 activator 1 (Homo sapiens, UniProt Q00535); assay: human CDK5 activity blockade – biochemical, microfluidic mobility shift, dry powder, selectivity assay for GSK-3 alpha inhibitor project, dose response (AID 588430)
# [4] = biological target: 26S proteasome non-ATPase regulatory subunit 14 (Homo sapiens, UniProt O00487); assay: inhibition of proteasome subunit RPN11 – biochemical, fluorescence polarization, uHTS hits, confirmation (AID 602368); format: functional
# Prothrombin = Prothrombin (Bos taurus, UniProt P00735); assay: thrombin protease inhibitors – biochemical, fluorescence polarization, uHTS hits, dose response (AID 602369); format: functional
# [5] = biological target: 72 kDa type IV collagenase (Homo sapiens, UniProt P08253); assay: Dose Response validation of uHTS RPN11 inhibitor hits using a MMP-2 Fluorescence assay.; format: functional
# [6] = (§1) Counterscreen for antagonists of the orexin 1 receptor (OX1R; HCRTR1): Fluorescence-based cell-based high throughput dose response assay to identify antagonists of the parental CHO cell line. [Related pubchem assays (depositor defined):AID434989, AID435008, AID463079, AID485270, AID492963, AID492964, AID492965, AID493232, AID504699, AID504701]; format: functional
# Orexin receptor type 2 [7] = biological target: T1, Orexin receptor type 2 (Homo sapiens, UniProt O43614); assay: Counterscreen assay for antagonists of the orexin 1 receptor (OX1R; HCRTR1): Homogeneous Time Resolved Fluorescence (HTRF)-based cell-based dose response assay for antagonists of the orexin 2 receptor (OX2R; HCRTR2), run by assay provider.; format: functional
# [8] = biological target: T2, Polyadenylate-binding protein 1 (Homo sapiens, UniProt P11940); assay: MLLE binding blockers, Cy5 peptide tracer – biochemical, fluorescence polarization, Cy5-PAM2 peptide, secondary, miRNA deadenylation inhibitor project, dose response (AID 602260); format: functional; conditions: read-out: IC50_Mean
# [9] = biological target: T3, Orexin/Hypocretin receptor type 1 (Homo sapiens, UniProt O43613); assay: Homogeneous Time Resolved Fluorescence (HTRF)-based cell-based high throughput dose response assay for antagonists of the orexin 1 receptor (OX1R; HCRTR1). [Related pubchem assays (depositor defined):AID434989, AID435008, AID463079, AID485270, AID492963, AID492964, AID492965, AID493232, AID504717, AID504718]; format: functional
# T3 sequence (O43613 whole entry): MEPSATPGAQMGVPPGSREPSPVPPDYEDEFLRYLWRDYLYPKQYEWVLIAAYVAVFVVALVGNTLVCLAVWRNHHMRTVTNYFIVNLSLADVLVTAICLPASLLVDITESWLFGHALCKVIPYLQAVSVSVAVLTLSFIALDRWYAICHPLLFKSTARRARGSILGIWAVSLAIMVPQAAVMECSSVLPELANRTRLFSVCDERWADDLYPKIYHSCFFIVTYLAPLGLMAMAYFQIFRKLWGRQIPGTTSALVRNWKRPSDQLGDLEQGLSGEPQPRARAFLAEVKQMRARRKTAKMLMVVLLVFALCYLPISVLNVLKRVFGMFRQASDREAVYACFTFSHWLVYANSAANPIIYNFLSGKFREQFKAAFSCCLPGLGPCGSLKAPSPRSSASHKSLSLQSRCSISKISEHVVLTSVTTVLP
# [10] = biological target: T2, Polyadenylate-binding protein 1; assay: MLLE domain peptide-binding blockers, IC50 – biochemical, fluorescence polarization, FITC-PAM2 peptide, dose response (AID 602259); format: functional; conditions: read-out: IC50_Mean
# [11] = biological target: T3, Orexin/Hypocretin receptor type 1; assay: Fluorescence-based cell-based high throughput dose response assay for antagonists of the orexin 1 receptor (OX1R; HCRTR1). [Related pubchem assays (depositor defined):AID434989, AID435008, AID463079, AID485270, AID492963, AID492964, AID492965, AID493232, AID504717, AID504718]; format: functional
# Orexin receptor type 2 [12] = biological target: T1, Orexin receptor type 2; assay: Counterscreen assay for antagonists of the orexin 1 receptor (OX1R; HCRTR1): Fluorescence-based cell-based dose response assay for antagonists of the orexin 2 receptor (OX2R; HCRTR2), run by assay provider.; format: functional
# CHO-K1 = assay: as §1, with “Homogeneous time resolved fluorescence (HTRF)-based” for “Fluorescence-based”, “cell-based” for “cell-based high throughput”, “CHO-K1” for “CHO”; format: functional; conditions: Cricetulus griseus;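 further: potency for inhibition of ATP-stimulated IP1 production as antagonists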
# T1 sequence (O43614 whole entry): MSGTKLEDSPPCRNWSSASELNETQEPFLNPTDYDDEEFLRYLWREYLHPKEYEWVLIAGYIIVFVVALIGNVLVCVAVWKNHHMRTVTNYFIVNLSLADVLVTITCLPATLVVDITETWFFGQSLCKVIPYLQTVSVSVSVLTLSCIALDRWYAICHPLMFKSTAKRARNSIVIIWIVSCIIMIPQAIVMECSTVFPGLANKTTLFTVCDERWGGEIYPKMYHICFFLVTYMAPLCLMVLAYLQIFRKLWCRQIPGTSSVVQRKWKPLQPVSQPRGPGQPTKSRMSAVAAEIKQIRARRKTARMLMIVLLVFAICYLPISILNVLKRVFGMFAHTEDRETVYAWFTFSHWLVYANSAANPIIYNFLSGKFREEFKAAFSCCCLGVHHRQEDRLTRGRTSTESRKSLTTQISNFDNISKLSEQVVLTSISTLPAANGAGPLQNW
# T2 sequence (P11940 whole entry): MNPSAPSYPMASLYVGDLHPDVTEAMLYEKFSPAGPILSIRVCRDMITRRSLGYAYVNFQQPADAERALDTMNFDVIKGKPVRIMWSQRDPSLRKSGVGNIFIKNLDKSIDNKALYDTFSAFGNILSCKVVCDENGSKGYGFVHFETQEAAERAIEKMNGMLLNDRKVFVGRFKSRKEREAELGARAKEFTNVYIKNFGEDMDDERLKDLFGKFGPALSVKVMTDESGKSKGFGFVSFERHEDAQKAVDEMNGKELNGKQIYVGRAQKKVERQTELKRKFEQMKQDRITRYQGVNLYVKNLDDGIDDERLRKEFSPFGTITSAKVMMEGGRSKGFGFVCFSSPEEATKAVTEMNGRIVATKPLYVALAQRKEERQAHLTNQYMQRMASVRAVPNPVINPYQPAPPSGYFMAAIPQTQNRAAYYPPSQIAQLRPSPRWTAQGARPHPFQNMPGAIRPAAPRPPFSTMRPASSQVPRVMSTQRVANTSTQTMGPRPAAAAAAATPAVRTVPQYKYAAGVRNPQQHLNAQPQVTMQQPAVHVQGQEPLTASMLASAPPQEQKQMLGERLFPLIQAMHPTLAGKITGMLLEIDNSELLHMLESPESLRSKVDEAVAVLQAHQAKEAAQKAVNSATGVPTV
# Cyclin-dependent kinase 5/CDK5 activator 1, sequence (Q00535 whole entry): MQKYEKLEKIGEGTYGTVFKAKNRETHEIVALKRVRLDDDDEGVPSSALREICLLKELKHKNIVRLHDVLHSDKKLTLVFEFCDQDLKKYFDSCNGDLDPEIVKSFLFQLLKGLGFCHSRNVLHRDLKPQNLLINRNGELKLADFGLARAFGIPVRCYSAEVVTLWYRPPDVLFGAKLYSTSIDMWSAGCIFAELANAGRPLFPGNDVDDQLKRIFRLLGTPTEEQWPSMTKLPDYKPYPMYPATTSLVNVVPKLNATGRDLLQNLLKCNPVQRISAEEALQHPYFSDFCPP
# Cyclin-dependent kinase 5/CDK5 activator 1, sequence (Q15078 whole entry, further chain): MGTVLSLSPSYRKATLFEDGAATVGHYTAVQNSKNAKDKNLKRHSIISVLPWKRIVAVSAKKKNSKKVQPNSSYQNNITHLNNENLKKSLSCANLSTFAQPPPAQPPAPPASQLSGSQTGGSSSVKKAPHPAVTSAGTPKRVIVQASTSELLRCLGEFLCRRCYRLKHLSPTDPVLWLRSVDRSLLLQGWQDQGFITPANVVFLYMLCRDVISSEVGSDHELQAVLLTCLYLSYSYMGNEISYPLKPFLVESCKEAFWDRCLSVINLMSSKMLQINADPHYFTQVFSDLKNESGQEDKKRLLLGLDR
# 26S proteasome non-ATPase regulatory subunit 14, sequence (O00487 whole entry): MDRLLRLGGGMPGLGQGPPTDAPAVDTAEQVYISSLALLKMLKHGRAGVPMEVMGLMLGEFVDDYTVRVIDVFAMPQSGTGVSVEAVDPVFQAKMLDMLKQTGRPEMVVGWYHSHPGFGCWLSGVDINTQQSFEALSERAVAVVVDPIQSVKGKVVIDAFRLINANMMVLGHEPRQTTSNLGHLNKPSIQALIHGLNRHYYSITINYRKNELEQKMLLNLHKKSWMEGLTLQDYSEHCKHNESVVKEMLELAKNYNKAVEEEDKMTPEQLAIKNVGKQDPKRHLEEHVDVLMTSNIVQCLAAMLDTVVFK
# Glycogen synthase kinase-3 alpha, sequence (P49840 whole entry): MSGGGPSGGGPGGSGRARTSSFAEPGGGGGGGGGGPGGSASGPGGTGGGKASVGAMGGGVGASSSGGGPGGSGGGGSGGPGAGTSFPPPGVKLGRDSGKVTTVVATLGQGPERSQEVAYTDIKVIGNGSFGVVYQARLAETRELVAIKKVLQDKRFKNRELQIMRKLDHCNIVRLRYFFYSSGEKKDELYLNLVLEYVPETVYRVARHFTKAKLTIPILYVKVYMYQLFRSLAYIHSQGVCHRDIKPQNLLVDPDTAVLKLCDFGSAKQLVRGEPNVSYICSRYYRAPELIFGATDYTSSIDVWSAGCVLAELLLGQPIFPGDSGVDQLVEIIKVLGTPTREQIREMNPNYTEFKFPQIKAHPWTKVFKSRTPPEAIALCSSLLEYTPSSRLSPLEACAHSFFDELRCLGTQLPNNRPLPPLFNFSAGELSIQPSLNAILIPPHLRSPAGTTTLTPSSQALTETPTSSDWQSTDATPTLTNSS
# Glycogen synthase kinase-3 beta, sequence (P49841 whole entry): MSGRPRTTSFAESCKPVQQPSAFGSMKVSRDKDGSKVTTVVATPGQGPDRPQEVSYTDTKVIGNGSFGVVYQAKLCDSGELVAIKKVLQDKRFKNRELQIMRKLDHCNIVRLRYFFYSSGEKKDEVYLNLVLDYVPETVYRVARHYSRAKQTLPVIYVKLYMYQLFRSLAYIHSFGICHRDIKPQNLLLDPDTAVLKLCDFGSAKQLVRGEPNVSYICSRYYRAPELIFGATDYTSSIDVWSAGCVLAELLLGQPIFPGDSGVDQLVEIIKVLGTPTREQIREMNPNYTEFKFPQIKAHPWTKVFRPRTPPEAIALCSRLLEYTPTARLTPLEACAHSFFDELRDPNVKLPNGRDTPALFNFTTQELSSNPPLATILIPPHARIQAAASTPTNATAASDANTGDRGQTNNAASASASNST
# 72 kDa type IV collagenase, sequence (P08253 whole entry): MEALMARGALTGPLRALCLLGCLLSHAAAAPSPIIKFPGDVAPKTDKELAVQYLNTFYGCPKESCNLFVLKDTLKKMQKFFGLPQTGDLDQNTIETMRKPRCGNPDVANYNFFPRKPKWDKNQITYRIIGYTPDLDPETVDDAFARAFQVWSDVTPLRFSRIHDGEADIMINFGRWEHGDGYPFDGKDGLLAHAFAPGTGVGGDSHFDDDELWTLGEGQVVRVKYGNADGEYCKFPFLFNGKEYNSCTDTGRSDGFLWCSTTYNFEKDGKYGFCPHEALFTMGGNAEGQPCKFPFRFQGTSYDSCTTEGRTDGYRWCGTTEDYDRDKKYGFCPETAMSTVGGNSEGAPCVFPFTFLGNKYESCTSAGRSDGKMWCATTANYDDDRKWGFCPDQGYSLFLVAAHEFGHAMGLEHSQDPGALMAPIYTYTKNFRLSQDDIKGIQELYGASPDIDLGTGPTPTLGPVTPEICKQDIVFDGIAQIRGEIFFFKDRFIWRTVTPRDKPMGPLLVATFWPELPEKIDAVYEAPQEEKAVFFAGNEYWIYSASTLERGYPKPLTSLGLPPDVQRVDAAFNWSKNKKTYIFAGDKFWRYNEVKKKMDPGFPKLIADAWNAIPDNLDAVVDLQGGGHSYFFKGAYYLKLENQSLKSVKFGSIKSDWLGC
compound,measurement,setting,value
O=C(CSc1ccc2nnc(-c3cccs3)n2n1)N1CCCC1,AC50,[1],0.742 µM (active)
same,AC50,[2],2.08 µM (active)
same,AC50,[3],78.4 µM (active)
O=C1NC(=O)N(c2cccc3ccccc23)C(=O)/C1=C\NN1CCCCC1c1cccnc1 (centres undefined),IC50,[4],27.4 µM (active)
same,IC50,Prothrombin,59.6 µM (active)
same,IC50,[5],> 100 µM (inactive)
CCN1C(=O)/C(=C2/SC(C)=C(C)N2CC)SC1=S,IC50,[6],> 49.8 µM (inactive)
same,IC50,Orexin receptor type 2 [7],> 50 µM (inactive)
same,IC50,[8],> 66 µM (inactive)
same,IC50,[9],3.15 µM (active)
same,IC50,[10],> 66 µM (inactive)
same,IC50,[11],14.7 µM (inactive)
same,IC50,Orexin receptor type 2 [12],> 88.8 µM (inactive)
same,IC50,CHO-K1,> 66.2 µM (inactive)
